In US20240325398A1, “COMBINATION THERAPIES” (Infinity Pharmaceuticals, Inc., priority 2014, published 2024):

Tests used:
[1] = tested on: SU-DHL-10-epst; assay: Combination study, ATPLite 72 h, dose matrix (Synergy Score, CI50); details: combination with Compound 1, 72 h
[2] = tested on: RPMI-8226; assay: as above; details: combination with Compound 1
[3] = tested on: GRANTA-519; assay: as above; details: combination with Compound 1
Procedure: (§1) Cells are thawed from a liquid nitrogen preserved state. Once cells have been expanded and divide at their expected doubling times, screening begins. Cells are seeded in growth media in either black 1536-well or 384-well tissue culture treated plates. Cells are then equilibrated in assay plates via centrifugation and placed in incubators attached to the Dosing Modules at 37° C. for 24 hours before treatment. […] These Tzero (To) plates are read using ultra-sensitive luminescence on Envision plate readers (Perkin Elmer). Treated assay plates are incubated with compound for 72 hours. After 72 hours, plates are developed for endpoint analysis using ATPLite. All data points are collected via automated processes, quality controlled and analyzed using Zalicus software.
(§2) where T is treated cell count and V is untreated (vehicle) cell count (at 72 hours). I ranges from 0% (when T=V) to 100% (when T=0). […] The measure of effect in the experiment can be the inhibition of cellular response relative to the untreated level (vehicle alone). […] The inhibition ranges from 0% at the untreated level to 100% when T=0. Inhibition levels are negative for agents that actually increase levels. Other effect measures, such as an activity ratio r=T/V may be more appropriate for some assays. When activity ratios (e.g, fold increase over stimulated control) are being used, the effect can be measured using an induction 1=ln(T/V). With this definition, all effect expressions are the same as for inhibition.
(§3) Growth Inhibition (GI) is used as a measure of cell viability. […] A GI reading of 100% represents complete growth inhibition—T72 compound-treated and T0 vehicle signals are matched. […] A GI reading of 200% represents complete death of all cells in the culture well. Compounds reaching an activity plateau of GI 200% are considered cytotoxic. GI is calculated by applying the following test and equation:
(§4) Combination analysis data were collected in a 6×6 dose matrix. Synergy is calculated by comparing a combination's response to those of its single compound, against the drug-with-itself dose-additive reference model. Deviations from dose additivity may be assessed visually on an isobologram or numerically with a Combination Index (CI). […] Additive effect is CI=1.0. […] Antagonistic effect is CI>1.0.
(§5) To measure combination effects in excess of Loewe additivity, a scalar measure to characterize the strength of synergistic interaction termed the Synergy Score is devised. The Synergy Score is calculated as:
(§6) The fractional inhibition for each component agent and combination point in the matrix is calculated relative to the median of all vehicle-treated control wells. The Synergy Score equation integrates the experimentally-observed activity volume at each point in the matrix in excess of a model surface numerically derived from the activity of the component agents using the Loewe model for additivity. Additional terms in the Synergy Score equation (above) are used to normalize for various dilution factors used for individual agents and to allow for comparison of synergy scores across an entire experiment. The inclusion of positive inhibition gating or an Idata multiplier removes noise near the zero effect level, and biases results for synergistic interactions at that occur at high activity levels.
(§7) Loewe Volume (Loewe Vol) is used to assess the overall magnitude of the combination interaction in excess of the Loewe additivity model. Loewe Volume is particularly useful when distinguishing synergistic increases in a phenotypic activity (positive Loewe Volume) versus synergistic antagonisms (negative Loewe Volume). […] This model defines additivity as a non-synergistic combination interaction where the combination dose matrix surface should be indistinguishable from either drug crossed with itself.

[4] = tested on: TMD8; assay: as above; details: combination with Compound 1; TMD8; 72 h
[5] = tested on: RL; assay: as above; details: combination with Compound 1, 72 h
[6] = tested on: NCI-H929; assay: as above; details: combination with Compound 1
Procedure: as §1, §2, §3, §4, §5, §6, §7

[7] = tested on: KARPAS-299; assay: as above; details: combination with Compound 1
[8] = tested on: OMP-2; assay: as above; details: combination with Compound 1; OPM-2
Procedure: as §1, §2, §3, §4, §5, §6, §7

[9] = as above; details: combination with Compound 1; OPM-2
Procedure: as §1, §2, §3, §4, §5, §6, §7

[10] = tested on: U-2932; assay: as above; details: combination with Compound 1, 72 h
[11] = tested on: Mino; assay: as above; details: combination with Compound 1
Procedure: as §1, §2, §3, §4, §5, §6, §7

[12] = tested on: DOHH-2; assay: as above; details: combination with Compound 1, 72 h
[13] = tested on: WSU-NHL; assay: as above; details: combination with Compound 1, 72 h
[14] = tested on: SU-DHL-4-epst; assay: as above; details: combination with Compound 1, 72 h
[15] = tested on: KARPAS-422; assay: as above; details: combination with Compound 1, 72 h
Procedure: as §1, §2, §3, §4, §5, §6, §7

[16] = tested on: HBL-1; assay: as above; details: combination with Compound 1, 72 h
[17] = tested on: OCI-Ly7; assay: as above; details: combination with Compound 1, 72 h
[18] = tested on: HH; assay: as above; assay type: cell-based; details: combination with Compound 1
Procedure: The method is described as follows.
Additive effect is CI=1.0. […] Antagonistic effect is CI>1.0.
The Synergy Score is calculated as: […]

[19] = tested on: OCI-Ly3; assay: as above; details: combination with Compound 1; OCI-Ly3; 72 h
Procedure: as §1, §2, §3, §4, §5, §6
Loewe Volume (Loewe Vol) is used to assess the overall magnitude of the combination interaction in excess of the Loewe additivity model. Loewe Volume is particularly useful when distinguishing synergistic increases in a phenotypic activity (positive Loewe Volume) versus synergistic antagonisms (negative Loewe Volume). […] This model defines additivity as a non-synergistic combination interaction where the combination dose matrix surface should be indistinguishable from either drug crossed with itself. The calculation for Loewe additivity is:

[20] = tested on: Farage; assay: as above; details: combination with Compound 1; Farage; 72 h
[21] = tested on: Jeko-1; assay: as above; details: combination with Compound 1

## Nc1cccc2c1CN(C1CCC(=O)NC1=O)C2=O (centres unmarked) [lenalidomide, 3-(4-Amino-1-oxo 1,3-dihydro-2H-isoindol-2-yl)piperidine-2,6-dione]
[1]
  CI50 growth inhibition: T (T=0.5 to <0.7)
  CI50 inhibition: T (T=0.5 to <0.7)
  Synergy Score growth inhibition: A2 (A2=1 to <3)
  Synergy Score inhibition: A2 (A2=1 to <3)
[2]
  Synergy Score growth inhibition: A1 (A1=0.0001 to <1)
  Synergy Score inhibition: A1 (A1=0.0001 to <1)
[3]
  Synergy Score growth inhibition: A1 (A1=0.0001 to <1)
  Synergy Score inhibition: A1 (A1=0.0001 to <1)
[4]
  CI50 growth inhibition: S (S=0.01 to <0.5)
  CI50 inhibition: S (S=0.01 to <0.5)
  Synergy Score growth inhibition: A3 (A3=>3)
  Synergy Score inhibition: A3 (A3=>3)
[5]
  Synergy Score growth inhibition: A1 (A1=0.0001 to <1)
  Synergy Score inhibition: A1 (A1=0.0001 to <1)
[6]
  CI50 growth inhibition: T (T=0.5 to <0.7)
  CI50 inhibition: S (S=0.01 to <0.5)
  Synergy Score growth inhibition: A3 (A3=>3)
  Synergy Score inhibition: A3 (A3=>3)
[7]
  Synergy Score growth inhibition: A1 (A1=0.0001 to <1)
  Synergy Score inhibition: A1 (A1=0.0001 to <1)
[8]
  Synergy Score growth inhibition: A2 (A2=1 to <3)
  Synergy Score inhibition: A1 (A1=0.0001 to <1)
[9]
  CI50 growth inhibition: S (S=0.01 to <0.5)
[10]
  CI50 growth inhibition: U (U=0.7 to <1)
  Synergy Score growth inhibition: A1 (A1=0.0001 to <1)
  Synergy Score inhibition: A1 (A1=0.0001 to <1)
[11]
  CI50 growth inhibition: T (T=0.5 to <0.7)
  CI50 inhibition: W (W=≥1)
  Synergy Score growth inhibition: A2 (A2=1 to <3)
  Synergy Score inhibition: A1 (A1=0.0001 to <1)
[12]
  CI50 growth inhibition: S (S=0.01 to <0.5)
  CI50 inhibition: S (S=0.01 to <0.5)
  Synergy Score growth inhibition: A3 (A3=>3)
  Synergy Score inhibition: A2 (A2=1 to <3)
[13]
  CI50 growth inhibition: T (T=0.5 to <0.7)
  CI50 inhibition: S (S=0.01 to <0.5)
  Synergy Score growth inhibition: A3 (A3=>3)
  Synergy Score inhibition: A2 (A2=1 to <3)
[14]
  CI50 growth inhibition: W (W=≥1)
  CI50 inhibition: T (T=0.5 to <0.7)
  Synergy Score growth inhibition: A2 (A2=1 to <3)
  Synergy Score inhibition: A1 (A1=0.0001 to <1)
[15]
  CI50 growth inhibition: S (S=0.01 to <0.5)
  CI50 inhibition: S (S=0.01 to <0.5)
  Synergy Score growth inhibition: A2 (A2=1 to <3)
  Synergy Score inhibition: A2 (A2=1 to <3)
[16]
  CI50 growth inhibition: W (W=≥1)
  Synergy Score growth inhibition: A1 (A1=0.0001 to <1)
  Synergy Score inhibition: A1 (A1=0.0001 to <1)
[17]
  Synergy Score growth inhibition: A1 (A1=0.0001 to <1)
  Synergy Score inhibition: A1 (A1=0.0001 to <1)
[18]
  CI50 growth inhibition: W (W=≥1)
  CI50 inhibition: T (T=0.5 to <0.7)
  Synergy Score growth inhibition: A2 (A2=1 to <3)
  Synergy Score inhibition: A1 (A1=0.0001 to <1)
[19]
  CI50 growth inhibition: W (W=≥1)
  Synergy Score growth inhibition: A1 (A1=0.0001 to <1)
  Synergy Score inhibition: A1 (A1=0.0001 to <1)
[20]
  CI50 growth inhibition: W (W=≥1)
  CI50 inhibition: W (W=≥1)
  Synergy Score growth inhibition: A2 (A2=1 to <3)
  Synergy Score inhibition: A1 (A1=0.0001 to <1)
[21]
  CI50 growth inhibition: S (S=0.01 to <0.5)
  CI50 inhibition: T (T=0.5 to <0.7)
  Synergy Score growth inhibition: A2 (A2=1 to <3)
  Synergy Score inhibition: A2 (A2=1 to <3)

## CCCCCCCCCCCCCCCCCCOP(=O)([O-])OC1CC[N+](C)(C)CC1 [perifosine, 1,1-dimethylpiperidinium-4-yl octadecyl phosphate]
[1]
  CI50 growth inhibition: T (T=0.5 to <0.7)
  CI50 inhibition: U (U=0.7 to <1)
  Synergy Score growth inhibition: A2 (A2=1 to <3)
  Synergy Score inhibition: A2 (A2=1 to <3)
[2]
  CI50 growth inhibition: T (T=0.5 to <0.7)
  CI50 inhibition: U (U=0.7 to <1)
  Synergy Score growth inhibition: A3 (A3=>3)
  Synergy Score inhibition: A1 (A1=0.0001 to <1)
[3]
  CI50 growth inhibition: S (S=0.01 to <0.5)
  CI50 inhibition: W (W=≥1)
  Synergy Score growth inhibition: A2 (A2=1 to <3)
  Synergy Score inhibition: A1 (A1=0.0001 to <1)
[4]
  CI50 growth inhibition: T (T=0.5 to <0.7)
  CI50 inhibition: T (T=0.5 to <0.7)
  Synergy Score growth inhibition: A2 (A2=1 to <3)
  Synergy Score inhibition: A2 (A2=1 to <3)
[5]
  CI50 growth inhibition: W (W=≥1)
  CI50 inhibition: W (W=≥1)
  Synergy Score growth inhibition: A1 (A1=0.0001 to <1)
  Synergy Score inhibition: A1 (A1=0.0001 to <1)
[6]
  CI50 growth inhibition: U (U=0.7 to <1)
  CI50 inhibition: W (W=≥1)
  Synergy Score growth inhibition: A2 (A2=1 to <3)
  Synergy Score inhibition: A1 (A1=0.0001 to <1)
[7]
  CI50 growth inhibition: W (W=≥1)
  CI50 inhibition: W (W=≥1)
  Synergy Score growth inhibition: A1 (A1=0.0001 to <1)
  Synergy Score inhibition: A1 (A1=0.0001 to <1)
[8]
  CI50 inhibition: W (W=≥1)
  Synergy Score growth inhibition: A2 (A2=1 to <3)
  Synergy Score inhibition: A1 (A1=0.0001 to <1)
[9]
  CI50 growth inhibition: U (U=0.7 to <1)
[10]
  CI50 growth inhibition: W (W=≥1)
  CI50 inhibition: W (W=≥1)
  Synergy Score growth inhibition: A1 (A1=0.0001 to <1)
  Synergy Score inhibition: A1 (A1=0.0001 to <1)
[11]
  CI50 growth inhibition: U (U=0.7 to <1)
  CI50 inhibition: W (W=≥1)
  Synergy Score growth inhibition: A2 (A2=1 to <3)
  Synergy Score inhibition: A1 (A1=0.0001 to <1)
[12]
  CI50 growth inhibition: T (T=0.5 to <0.7)
  CI50 inhibition: U (U=0.7 to <1)
  Synergy Score growth inhibition: A3 (A3=>3)
  Synergy Score inhibition: A2 (A2=1 to <3)
[13]
  CI50 growth inhibition: U (U=0.7 to <1)
  CI50 inhibition: T (T=0.5 to <0.7)
  Synergy Score growth inhibition: A3 (A3=>3)
  Synergy Score inhibition: A2 (A2=1 to <3)
[14]
  CI50 growth inhibition: S (S=0.01 to <0.5)
  CI50 inhibition: U (U=0.7 to <1)
  Synergy Score growth inhibition: A2 (A2=1 to <3)
  Synergy Score inhibition: A1 (A1=0.0001 to <1)
[15]
  CI50 growth inhibition: W (W=≥1)
  CI50 inhibition: U (U=0.7 to <1)
  Synergy Score growth inhibition: A1 (A1=0.0001 to <1)
  Synergy Score inhibition: A1 (A1=0.0001 to <1)
[16]
  CI50 growth inhibition: U (U=0.7 to <1)
  CI50 inhibition: W (W=≥1)
  Synergy Score growth inhibition: A3 (A3=>3)
  Synergy Score inhibition: A1 (A1=0.0001 to <1)
[17]
  CI50 growth inhibition: U (U=0.7 to <1)
  CI50 inhibition: W (W=≥1)
  Synergy Score growth inhibition: A2 (A2=1 to <3)
  Synergy Score inhibition: A1 (A1=0.0001 to <1)
[18]
  CI50 growth inhibition: W (W=≥1)
  CI50 inhibition: S (S=0.01 to <0.5)
  Synergy Score growth inhibition: A3 (A3=>3)
  Synergy Score inhibition: A2 (A2=1 to <3)
[19]
  CI50 growth inhibition: W (W=≥1)
  CI50 inhibition: W (W=≥1)
  Synergy Score growth inhibition: A1 (A1=0.0001 to <1)
  Synergy Score inhibition: A1 (A1=0.0001 to <1)
[20]
  CI50 growth inhibition: S (S=0.01 to <0.5)
  CI50 inhibition: T (T=0.5 to <0.7)
  Synergy Score growth inhibition: A3 (A3=>3)
  Synergy Score inhibition: A2 (A2=1 to <3)
[21]
  CI50 growth inhibition: U (U=0.7 to <1)
  CI50 inhibition: W (W=≥1)
  Synergy Score growth inhibition: A1 (A1=0.0001 to <1)
  Synergy Score inhibition: A1 (A1=0.0001 to <1)
